In one assay the test system is STZ-diabetic rats. In words: Prevention of arterial stiffening in diabetes: STZ-diabetic rats treated 8 weeks via drinking water. The conditions noted are these: STZ-diabetic rats (DM), 1 g·L-1 in drinking water, n = 12, mean ± SEM. In kind it is in vivo, Male Wistar rats. The procedure: (§1) Diabetes was induced in rats by a single tail vein injection with 55 mg·kg-1 steptozotocin (STZ). After induction of hyperglycaemia, animals were treated for 8 weeks with pyridoxamine (1 g·L-1 in drinking water) and Formula-I (1-2) (1 g·L-1 in drinking water) were compared with the age-matched untreated diabetic controls. Pulse wave reflection along the vasculature was derived using the impulse response function of the filtered aortic input impedance spectra.
(§2) Male Wistar rats at 2 months were randomly divided into six groups (n=12 in each group) as follows: (i) normal controls (NC); (ii) STZ-diabetic rats (DM); (iii) NC treated with PM (NC+PM); (iv) NC treated with Formula-I (1-2) (NC+Formula-I (1-2)); (v) DM treated with PM (DM+PM); and (vi) DM treated with Formula-I (1-2) (DM+Formula-I (1-2)). Diabetes was induced in animals by a single tail vein injection with 55 mg·kg-1 STZ in 0.1 M citrate buffer (pH 4.5). After confirmation of the development of hyperglycaemia (2 days later) by blood glucose determination using a sure step Test Strip, rats were randomly allocated into a vehicle-treated diabetic group, and a treatment group receiving PM in drinking water of 1 g·L-1 and Formula-I (1-2) in drinking water of 1 g·L-1. Animals were studied 8 weeks after exposure to PM to determine its effects on the pulsatile nature of blood flows in the diabetic arteries.
(§3) Effects of Diabetes and Pyridoxamine and Formula-I (1-2) on Blood Glucose Level, Body Weight, Left Ventricular Weight and Aortic Pressure Profile in Male Wistar Rats: […]

Assay [1] relates to normal controls (NC) rats. In words: Normal control rats treated 8 weeks via drinking water (same study). In kind it is in vivo, Male Wistar rats. The note with it: 1 g·L-1 in drinking water, n = 12, mean ± SEM. The procedure:
as §1, §2, §3

`CC/C=C\C/C=C\C/C=C\C/C=C\C/C=C\CCCC(=O)OC(C)OC(=O)NCc1c(CO)cnc(C)c1O` (stereo not shown) [Formula 1(1-2)]: in the assay with STZ-diabetic rats, the “BW (body weight)” value was 299.8 ± 14.9 g, the Glucose turned out to be 4.128 ± 0.189 mg/mL, the “LVW (left ventricular weight)” value is listed as 0.599 ± 0.0349 g and the LVW/BW was 1.989 ± 0.034 mg/g. Further, in the assay on STZ-diabetic rats, the “Pd (diastolic aortic pressure)” value is 72.5 ± 1.98 mmHg, the “Pm (mean aortic pressure)” value came out at 88.9 ± 1.96 mmHg and the “Ps (systolic aortic pressure)” value is recorded as 102.7 ± 1.098 mmHg. Besides, in assay [1], the “BW (body weight)” value is on record as 418.0 ± 13.8 g, the Glucose came to 1.051 ± 0.014 mg/mL, the “LVW (left ventricular weight)” value worked out at 0.789 ± 0.016 g and the LVW/BW turned out to be 1.69 ± 0.04 mg/g. Besides, in assay [1], the “Pd (diastolic aortic pressure)” value was 76.7 ± 4.10 mmHg, the “Pm (mean aortic pressure)” value came out at 91.4 ± 3.7 mmHg and the “Ps (systolic aortic pressure)” value was determined as 103.1 ± 2.5 mmHg.
Take `Cc1ncc(CO)c(CN)c1O` [PM, pyridoxamine]: in the assay on STZ-diabetic rats, the “BW (body weight)” value was 296.3 ± 16.4 g, the Glucose amounted to 4.305 ± 0.209 mg/mL, the “LVW (left ventricular weight)” value worked out at 0.609 ± 0.029 g and the LVW/BW was found to be 2.07 ± 0.04 mg/g. For the same compound, in the assay with STZ-diabetic rats, the “Pd (diastolic aortic pressure)” value came to 73.2 ± 2.1 mmHg, the “Pm (mean aortic pressure)” value is 89.9 ± 2.0 mmHg and the “Ps (systolic aortic pressure)” value stood at 103.3 ± 2.0 mmHg. Further, in assay [1], the “BW (body weight)” value amounted to 420.0 ± 11.5 g, the Glucose stood at 1.004 ± 0.032 mg/mL, the “LVW (left ventricular weight)” value is given as 0.722 ± 0.023 g and the LVW/BW stood at 1.72 ± 0.03 mg/g. In assay [1], the “Pd (diastolic aortic pressure)” value is given as 77.6 ± 3.0 mmHg, the “Pm (mean aortic pressure)” value turned out to be 92.5 ± 2.7 mmHg and the “Ps (systolic aortic pressure)” value came out at 106.0 ± 2.5 mmHg.

These data come from patent US9522884B2, “Compositions and methods for the treatment of metabolic disorders” (CELLIXBIO PRIVATE LIMITED, priority 2012, dated 2016).
